{"source": "patent US7217686B1", "about": "“DNA sequence encoding oncofetal ferritin protein” (Gardino Investment N.V., priority 1999, dated 2007)", "key": {"[1]": {"system": "activated human lymphocytes in MLR", "assay": "Cytokine secretion by activated human lymphocytes in mixed lymphocyte culture (ELISA)", "format": "cell-based", "conditions": "24 h culture supernatant", "procedure": "In-vitro activation of human lymphocytes without and with C48/OFF1 treatment was carried out in a mixed lymphocyte culture (MLC). Human peripheral blood lymphocytes ([…]) (responder cells) were incubated with non-related Mitomycin C (40 μgr/ml) treated lymphocytes (2×10^6/ml) in RPMI-1640 medium containing 10% Fetal Calf serum and antibiotics. The cultures were incubated for 24 h in a humidified incubator at 37° C. with 5% CO2. Supernatants were collected and the concentration of the secreted cytokines were measured using an ELISA assay kit. The level of IL-2 R, and interferon (Th1 cytokines) and IL-6 and IL-10 (TH2 cytokines) were determined."}, "[2]": {"system": "zymosan induced arthritis (ZIA)", "assay": "Zymosan induced arthritis (ZIA) in mice", "format": "in vivo", "conditions": "for Knee swelling Mean +/− SD (n = 10): C48 30 μg/per mouse daily i.p. from day 1 up to 10", "procedure": "Animals: Female ICR mice were obtained from our institution's breeding facilities and were fed a standard diet and tap water ad libidum. Induction of zymosan-induced arthritis: A homogeneous suspension of 25 mg zymosan A (Saccharomyces cerevisiae), dissolves in 1 ml endotoxin-free saline, was obtained by boiling twice followed by sonic emulsification. Arthritis was induced by intrarticular injection of 0.5 mgr/20 l zymosan into each right and left knees. Assessment of ZIA: Mice were evaluated at 14 days post zymosan injections: Swelling was quantitated by measuring the thickness of the knees with a caliper, at 14th day post ZIA and compared to the thickness prior to ZIA. Histologic processing and analysis of knee joints: Knee joints were dissected, fixed, decalcified, dehydrated, and embedded in paraffin. Standard frontal section of 7 μm were prepared and stained with eosin-hematoxilin. Disease severity was assessed by calculation of arthritic index as follows: • Semiquantitative assessment of pathologic findings was performed using a grading system, consisting of five grades. Grade 0: normal synovia; grade 1: 1–5 cellular infiltrates in the microscopic field; grade 2: 6–20 cellular infiltrates; grade 3: 21–50 infiltrates; grade 4: more than […]. • Lymphocytic nodules: grade 1: 1–3 nodules per sectio; grade 2: 4–10 nodules; grade 3: 11–20 nodules; grade 4: more than 20 nodules. • Histiocytes grading: grade 1: 1–10 cell; grade 2: 11–20 cells; grade 3: 21–30 cells; grade 4: more than 30 cells. • Synovial thickness: grade 0: presence of 1 layer of synovial cells; grade 2: 2–3 layers; grade 3: 4–6 layers; grade 4: more than 6 layers. The presence of pannus was considered evidence of severe synovitis. Treatment with C48 (OFF1): Three groups of 10 mice each, were treated by daily intraperitoneal injections of either PBS (control group) or C48 (30 μg/per mouse). Statistical analysis: The significance of comparisons between means was assessed by Student's t-test. Effect of C48 administration on ZIA: Two group of mice (n=10 each) were treated by daily i.p. injections from day 1 up to 10 (10 days), or from day 3 to 10 (7 days) (C48 delayed) following intraarticular zymosan injections. Groups of ZIA mice (n=10) which received daily injections of PBS served as control."}, "[3]": {"system": "human bone marrow progenitor CFU-GM", "assay": "CFU-GM colony assay with normal human bone marrow mononuclear cells", "format": "cell-based", "conditions": "Cond. Med. 5% vol/vol, p43 (PLF) 1 μg/ml, GM-CSF 15 ng/ml; for number of CFU-GM colonies: scored after 14 days", "procedure": "Bone marrow samples from 11 healthy volunteer donors were processed by density gradient separation using […] (Sigma diagnostics, St. Louis, Mo., USA) to obtain a purified population of mononuclear cells. Colony assays were performed in a plating medium containing final concentrations of 0.92% methyl cellulose (M-281 powder, 4,000 centipoise, Fisher Scientific Co., Fair Lawn, N.J., USA), rehydrated in Iscove's modified Dulbecco's medium containing 36 mM sodium bicarbonate (Gibco, Grand Island, N.Y., USA), 30% fetal bovine serum (FBS) (HyClone, Logan, Utah, USA) 0.292 mg/ml glutamine, 100 U/ml penicillin and 0.01 mg/ml streptomycin (Biological Industries, Beit Haemek, Israel). Growth factors used were […] GM-CSF Leucomax (Sandoz Pharma) and 5% vol/vol human phytohemagglutinin-M (Difco Laboratories, Detroit, Mich., USA)-induced conditioned medium (Cond. Med.) p43 (PLF) was added at concentration of 1 μg/mL and in neutralization experiments, p43 (PLF) was preincubated with 10× excess of CM-H-9 MoAb at 37° C. for 30 min and the complex added to the assay as above. The colony assay medium contained 10^5 mononuclear cells/ml and each 1 ml was plated into triplicate wells (333 μl/well) of a 24 well tissue culture plate (Greiner, Germany). Water was added to spaces between cells to maximize humidity during incubation of the cultures. The cultures were incubated at 37° C. in 5% CO2 and 55% relative humidity. Plates were scored after 14 days for colonies containing more than 50 cells."}}, "note": "Where “and” joins values, the source holds several entries; their conditions need not be identical. Equal values may be shown once."}
{"substance": "C48/OFF 1: deletion construct encoding the unique C-terminal 48 aa of OFF1, expressed in E. coli as GST fusion protein (FPSPISPSPSCWHHYTTNRPQPQHHLLRPRRRKRPHSIPTPILIFRSP; left off: a dimerising Fc or GST)", "values": [{"measurement": "IL-6 secreted in MLR", "setting": "[1]", "result": "170,779 +/− 58,800 u/mL"}, {"measurement": "IL-10 secreted in MLR", "setting": "[1]", "result": "1125 +/− 332 u/mL"}, {"measurement": "sIL-2R secreted in MLR", "setting": "[1]", "result": 50, "unit": "u/mL"}, {"measurement": "γ Interferon secreted in MLR", "setting": "[1]", "result": 46, "unit": "u/mL"}, {"measurement": "Knee swelling Mean +/− SD (n = 10)", "setting": "[2]; 14 days post zymosan", "result": 0.24, "unit": "mm"}, {"measurement": "Knee swelling Mean +/− SD (n = 10)", "setting": "[2]; 14 days post zymosan, listed as C48", "result": "0.24 +/− 0.56 mm"}, {"measurement": "Knee swelling Mean +/− SD (n = 10), C48 delayed", "setting": "[2]; C48 30 μg/per mouse daily i.p. from day 3 to 10, 14 days post zymosan, listed as C48", "result": "0.33 mm and 0.33 +/− 0.57 mm"}, {"measurement": "Arthritis Score Mean +/− SD (n = 10)", "setting": "[2]; C48 daily i.p. from day 1 up to 10, mean grades of pathological findings", "result": "1 +/− 0.83"}, {"measurement": "Arthritis Score Mean +/− SD (n = 10), C48 delayed", "setting": "[2]; C48 daily i.p. from day 3 to 10, mean grades of pathological findings", "result": "0.9 +/− 0.83"}, {"measurement": "severity of arthritis", "setting": "[2]; C48 from day 1 to 10 or from day 3 to 10, compared with PBS", "result": "very mild"}]}
{"substance": "GM-CSF: GM-CSF Leucomax (Sandoz Pharma), growth factor used for comparison [reference compound]", "values": [{"measurement": "MEDIAN number of CFU-GM colonies", "setting": "[3]; 11 donors", "result": 144}, {"measurement": "RANGE of number of CFU-GM colonies", "setting": "[3]; 11 donors", "result": "50–884"}, {"measurement": "mean number of CFU-GM colonies (AVG.)", "setting": "[3]; 11 donors", "result": "276+/−257 and 276.2"}, {"measurement": "number of CFU-GM colonies", "setting": "[3]; Bone Marrow No. 1", "result": 144}, {"measurement": "number of CFU-GM colonies", "setting": "[3]; Bone Marrow No. 2", "result": 396}, {"measurement": "number of CFU-GM colonies", "setting": "[3]; Bone Marrow No. 3", "result": 114}, {"measurement": "number of CFU-GM colonies", "setting": "[3]; Bone Marrow No. 4", "result": 66}, {"measurement": "number of CFU-GM colonies", "setting": "[3]; Bone Marrow No. 5", "result": 136}, {"measurement": "number of CFU-GM colonies", "setting": "[3]; Bone Marrow No. 6", "result": 250}, {"measurement": "number of CFU-GM colonies", "setting": "[3]; Bone Marrow No. 7", "result": 50}, {"measurement": "number of CFU-GM colonies", "setting": "[3]; Bone Marrow No. 8", "result": 74}, {"measurement": "number of CFU-GM colonies", "setting": "[3]; Bone Marrow No. 9", "result": 520}, {"measurement": "number of CFU-GM colonies", "setting": "[3]; Bone Marrow No. 10", "result": 884}, {"measurement": "number of CFU-GM colonies", "setting": "[3]; Bone Marrow No. 11", "result": 405}]}
